The first test has as its system SREBP pathway. As to the kind of experiment: SREBP luciferase reporter gene system (SRE-luciferase assay). It counts as cell-based, human. To be noted: Homo sapiens, Huh-7, 16 h, Huh-7/SRE-luc cells, sterol-deficient medium, 0.01-10 µM. In outline: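 Readout was SRE-driven luciferase normalised to GFP fluorescence in lysates of stably transfected Huh-7/SRE-luc hepatoma cells. Compounds (0.01, 0.03, 0.1, 0.3, 1.0, 3.0, 10 µM; DMSO control) were applied for 16 h in sterol-depleted medium with 2 µM lovastatin and 10 µM mevalonate; IC50 from variable-slope fit.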
A general note: A reporter such as luciferase makes a cellular process visible.
Take `COc1cc(OC)c([C@H](O)CCC[C@@H](C)[C@H]2CC[C@H]3[C@H]4[C@H](CC[C@]23C)[C@@]2(C)CC[C@H](O)[C@H](O)[C@@H]2CC4(F)F)c(F)n1` (single isomer, unassigned) [Compound 235]: the IC50 – broadly, the concentration that inhibits the measured activity by half – amounted to 0.115 µM. `C[C@H](CCCC(O)c1ccc(F)nc1O)[C@H]1CC[C@H]2[C@H]3[C@H](CC[C@]12C)[C@@]1(C)CC[C@H](O)[C@H](O)[C@@H]1CC3(F)F` (stereo partly drawn) [Compound 276, (1R,3aS,3bS,5aR,6R,7S,9aR,9bS,11aR)-4,4-difluoro-1-[(2R)-6-(6-fluoro-2-hydroxypyridin-3-yl)-6-hydroxyhexan-2-yl]-9a,11a-dimethylhexadecahydro-1H-cyclopenta[1,2-a]phenanthrene-6,7-diol]: the IC50 worked out at 0.925 µM.

Turning to `C[C@H](CCC[C@@H](O)c1ccc(F)nc1OCC1COC1)[C@H]1CC[C@H]2[C@H]3[C@H](CC[C@]12C)[C@@]1(C)CC[C@H](O)[C@H](O)[C@@H]1CC3(F)F` [Compound 386, (1R,3aS,3bS,5aR,6R,7S,9aR,9bS,11aR)-4,4-difluoro-1-[(2R,6R)-6-{6-fluoro-2-[(oxetan-3-ylmethyl)oxy]pyridin-3-yl}-6-hydroxyhexan-2-yl]-9a,11a-dimethylhexadecahydro-1H-cyclopenta[1,2-a]phenanthrene-6,7-diol], the IC50 worked out at 0.026 µM. For `COc1nc(F)ccc1[C@H](O)CC[C@@H](C)[C@H]1CC[C@H]2C3=C(F)C[C@H]4[C@@H](O)[C@@H](O)CC[C@]4(C)[C@H]3CC[C@]12C` [Compound 340, (1R,3aR,5aR,6R,7S,9aR,9bR,11aR)-4-fluoro-1-[(2R,5R)-5-(6-fluoro-2-methoxypyridin-3-yl)-5-hydroxypentan-2-yl]-9a,11a-dimethyl-2,3,3a,5,5a,6,7,8,9,9a,9b,10,11,11a-tetradecahydro-1H-cyclopenta[1,2-a]phenanthrene-6,7-diol], the IC50 turned out to be 0.108 µM. In the case of `COc1nc(F)ccc1[C@@](C)(O)CCC[C@@H](C)[C@H]1CC[C@H]2[C@H]3[C@H](CC[C@]12C)[C@@]1(C)CC[C@H](O)[C@H](O)[C@@H]1CC3(F)F` [Compound 309, (1R,3aS,3bS,5aR,6R,7S,9aR,9bS,11aR)-4,4-difluoro-1-[(2R,6S)-6-(6-fluoro-2-methoxypyridin-3-yl)-6-hydroxyheptan-2-yl]-9a,11a-dimethylhexadecahydro-1H-cyclopenta[1,2-a]phenanthrene-6,7-diol], the IC50 turned out to be 0.143 µM. On the same count and under the same terms, the same measure for `C[C@H](CCCC(O)c1cccc2nnn(C)c12)[C@H]1CC[C@H]2[C@H]3[C@H](CC[C@]12C)[C@@]1(C)CC[C@H](O)[C@H](O)[C@@H]1CC3(F)F` (single isomer, unassigned) [Compound 277, (1R,3aS,3bS,5aR,6R,7S,9aR,9bS,11aR)-4,4-difluoro-1-[(2R,6S)-6-hydroxy-6-(3-methylbenzo[d][1,2,3]triazol-4-yl)hexan-2-yl]-9a,11a-dimethylhexadecahydro-1H-cyclopenta[1,2-a]phenanthrene-6,7-diol or (1R,3aS,3bS,5aR,6R,7S,9aR,9bS,11aR)-4,4-difluoro-1-[(2R,6R)-6-hydroxy-6-(3-methylbenzo[d][1,2,3]triazol-4-yl)hexan-2-yl]-9a,11a-dimethylhexadecahydro-1H-cyclopenta[1,2-a]phenanthrene-6,7-diol]: 0.369 µM; for `COc1nc(F)ccc1C(C)(O)CCC[C@@H](C)[C@H]1CC[C@H]2[C@H]3[C@H](CC[C@]12C)[C@@]1(C)CC[C@H](O)[C@H](O)[C@@H]1CC3(F)F` (stereo partly drawn) [Compound 308, (1R,3aS,3bS,5aR,6R,7S,9aR,9bS,11aR)-4,4-difluoro-1-[(2R)-6-(6-fluoro-2-methoxypyridin-3-yl)-6-hydroxyheptan-2-yl]-9a,11a-dimethylhexadecahydro-1H-cyclopenta[1,2-a]phenanthrene-6,7-diol]: 0.112 µM; for `COc1cc(F)c(C(O)CCC[C@@H](C)[C@H]2CC[C@H]3[C@H]4[C@H](CC[C@]23C)[C@@]2(C)CC[C@H](O)[C@H](O)[C@@H]2CC4(F)F)c(OC)c1` (stereo partly drawn) [Compound 182, (1R,3aS,3bS,5aR,6R,7 S,9aR,9bS,11aR)-4,4-Difluoro-1-[(2R)-6-(2-fluoro-4,6-dimethoxyphenyl)-6-hydroxyhexan-2-yl]-9a,11a-dimethylhexadecahydro-1H-cyclopenta[1,2-a]phenanthrene-6,7-diol]: 0.121 µM. As for `C[C@H](CCCC(O)c1cccc(F)c1)[C@H]1CC[C@H]2C3=C(F)C[C@H]4[C@@H](O)[C@@H](O)CC[C@]4(C)[C@H]3CC[C@]12C` (stereo partly drawn) [Compound 45, (1R,3aR,5aR,6R,7S,9aR,9bR,11aR)-4-fluoro-1-[(2R)-6-(3-fluorophenyl)-6-hydroxyhexan-2-yl]-9a,11a-dimethyl-2,3,3a,5,5a,6,7,8,9,9a,9b,10,11,11a-tetradecahydro-1H-cyclopenta[1,2-a]phenanthrene-6,7-diol], the IC50 amounted to 0.198 µM. Consider `COc1cc(Cl)ccc1[C@@H](O)CCC[C@@H](C)[C@H]1CC[C@H]2[C@H]3[C@H](CC[C@]12C)[C@@]1(C)CC[C@H](O)[C@H](O)[C@@H]1CC3(F)F` [Compound 112, (1R,3aS,3bS,5aR,6R,7S,9aR,9bS,11aR)-1-[(2R,6S)-6-(4-chloro-2-methoxyphenyl)-6-hydroxyhexan-2-yl]-4,4-difluoro-9a,11a-dimethylhexadecahydro-1H-cyclopenta[1,2-a]phenanthrene-6,7-diol], for which the IC50 came to 0.318 µM. As to `C[C@H](CCC[C@@H](O)c1cccc2cnn(C)c12)[C@H]1CC[C@H]2C3=C(F)C[C@H]4[C@@H](O)[C@@H](O)CC[C@]4(C)[C@H]3CC[C@]12C` (single isomer, unassigned) [Compound 246], the IC50 amounted to 0.139 µM. As to `COc1nc(F)ccc1[C@](C)(O)CCC[C@@H](C)[C@H]1CC[C@H]2[C@H]3[C@H](CC[C@]12C)[C@@]1(C)CC[C@H](O)[C@H](O)[C@@H]1CC3(F)F` [Compound 310, (1R,3aS,3bS,5aR,6R,7S,9aR,9bS,11aR)-4,4-difluoro-1-[(2R,6R)-6-(6-fluoro-2-methoxypyridin-3-yl)-6-hydroxyheptan-2-yl]-9a,11a-dimethylhexadecahydro-1H-cyclopenta[1,2-a]phenanthrene-6,7-diol], the IC50 is 0.209 µM.

The same test, now with this note: Huh-7/SRE-luc cells, sterol-deficient medium, 16 hours, 0.01-10 µM.
As to `COc1cncc(F)c1C(O)CCC[C@@H](C)[C@H]1CC[C@H]2[C@H]3[C@H](CC[C@]12C)[C@@]1(C)CC[C@H](O)[C@H](O)[C@@H]1CC3(F)F` (single isomer, unassigned) [Compound 252, (1R,3aS,3bS,5aR,6R,7S,9aR,9bS,11aR)-4,4-difluoro-1-[(2R,6R)-6-(3-fluoro-5-methoxypyridin-4-yl)-6-hydroxyhexan-2-yl]-9a,11a-dimethylhexadecahydro-1H-cyclopenta[1,2-a]phenanthrene-6,7-diol or (1R,3aS,3bS,5aR,6R,7S,9aR,9bS,11aR)-4,4-difluoro-1-[(2R,6S)-6-(3-fluoro-5-methoxypyridin-4-yl)-6-hydroxyhexan-2-yl]-9a,11a-dimethylhexadecahydro-1H-cyclopenta[1,2-a]phenanthrene-6,7-diol], the 50% inhibitory concentration (IC50) came to 0.031 µM. With `C[C@H](CCCC(O)c1cccc2cnn(C)c12)[C@H]1CC[C@H]2[C@H]3[C@H](CC[C@]12C)[C@@]1(C)CC[C@H](O)[C@H](O)[C@@H]1CC3(F)F` (single isomer, unassigned) [Compound 243, (1R,3aS,3bS,5aR,6R,7S,9aR,9bS,11aR)-4,4-difluoro-1-[(2R,6S)-6-hydroxy-6-(1-methylindazol-7-yl)hexan-2-yl]-9a,11a-dimethylhexadecahydro-1H-cyclopenta[1,2-a]phenanthrene-6,7-diol or (1R,3aS,3bS,5aR,6R,7S,9aR,9bS,11aR)-4,4-difluoro-1-[(2R,6R)-6-hydroxy-6-(1-methylindazol-7-yl)hexan-2-yl]-9a,11a-dimethylhexadecahydro-1H-cyclopenta[1,2-a]phenanthrene-6,7-diol], the IC50 came to 0.134 µM. With `COc1nc(C(O)CCC[C@@H](C)[C@H]2CC[C@H]3[C@H]4[C@H](CC[C@]23C)[C@@]2(C)CC[C@H](O)[C@H](O)[C@@H]2CC4(F)F)cs1` (single isomer, unassigned) [Compound 221, (1R,3aS,3bS,5aR,6R,7S,9aR,9bS,11aR)-4,4-difluoro-1-[(2R,6S)-6-hydroxy-6-(2-methoxy-1,3-thiazol-4-yl)hexan-2-yl]-9a,11a-dimethylhexadecahydro-1H-cyclopenta[1,2-a]phenanthrene-6,7-diol or (1R,3aS,3bS,5aR,6R,7S,9aR,9bS,11aR)-4,4-difluoro-1-[(2R,6R)-6-hydroxy-6-(2-methoxy-1,3-thiazol-4-yl)hexan-2-yl]-9a,11a-dimethylhexadecahydro-1H-cyclopenta[1,2-a]phenanthrene-6,7-diol], the IC50 came out at 0.183 µM.

In the case of `COc1nc(C)ccc1C(O)CCC[C@@H](C)[C@H]1CC[C@H]2[C@H]3[C@H](CC[C@]12C)[C@@]1(C)CC[C@H](O)[C@H](O)[C@@H]1CC3(F)F` (single isomer, unassigned) [Compound 218, (1R,3aS,3bS,5aR,6R,7S,9aR,9bS,11aR)-4,4-difluoro-1-[(2R,6R)-6-hydroxy-6-(2-methoxy-6-methylpyridin-3-yl)hexan-2-yl]-9a,11a-dimethylhexadecahydro-1H-cyclopenta[1,2-a]phenanthrene-6,7-diol or (1R,3aS,3bS,5aR,6R,7S,9aR,9bS,11aR)-4,4-difluoro-1-[(2R,6S)-6-hydroxy-6-(2-methoxy-6-methylpyridin-3-yl)hexan-2-yl]-9a,11a-dimethylhexadecahydro-1H-cyclopenta[1,2-a]phenanthrene-6,7-diol], the IC50 is 0.141 µM. On the same count and under the same terms, the same measure for `C[C@H](CCC[C@@H](O)c1cc2ccccc2o1)[C@H]1CC[C@H]2[C@H]3[C@H](CC[C@]12C)[C@@]1(C)CC[C@H](O)[C@H](O)[C@@H]1CC3(F)F` (stereo in doubt) [Compound 317, (1R,3aS,3bS,5aR,6R,7S,9aR,9bS,11aR)-1-[(2R,6R)-6-(1-benzofuran-2-yl)-6-hydroxyhexan-2-yl]-4,4-difluoro-9a,11a-dimethylhexadecahydro-1H-cyclopenta[1,2-a]phenanthrene-6,7-diol]: 0.155 µM.

(Values after patent publication EP4752152A1, “STEROID COMPOUND, AND PREPARATION METHOD THEREFOR AND USE THEREOF” (Cholesgen (Shanghai) Co.Ltd., priority 2023, dated 2025).)
